In article PMC11267968 (BMC Cancer, 2024):

What was measured:
[1] = test system: orthotopic intracranial GL261 cell tumours; parameters: method as in PMID 26636389; conditions: cited from earlier work
U87 cell xenograft = test system: U87 cell xenograft; parameters: method as in PMID 26636389; conditions: U87 cell xenograft model; cited from earlier work
[2] = test system: subcutaneous GL2612 tumour; parameters: method as in PMID 29993291; conditions: with TMZ; mice; cited from earlier work
C6 orthotopic glioma = test system: C6 orthotopic glioma; parameters: method as in PMID 29993291; conditions: with TMZ; C6 orthotopic rat model of glioma; cited from earlier work
[3] = test system: tumour-infiltrating lymphocytes in GL261(luc2) glioblastomas; assay: Immune response profiling of tumour-infiltrating lymphocytes by FACS; format: in vivo, C57BL/6J mice; conditions: day 16, AT-0174 […] mg/kg PO, TMZ 8 mg/kg IP
Text: On day 16 post-tumour inoculation, satellite animals from each experimental group were euthanized, and tumours were collected. Tumours were processed for organ dissociation using the GentleMACS system (Miltenyi Biotec) and myelin debris removal and homogenate purification through a Percoll gradient. Tumour homogenates were then processed for immunostaining and profiling analysis by flow cytometry for the lymphoid component according to a marker panel including CD45, CD3, CD4, CD8, IFNγ, CD25, and FoxP3. For IFNγ, homogenate samples were first stimulated with a cocktail of Phorbol 12-myristate 13-acetate, Ionomycin and Brefeldin A. Briefly, to assess viability, cells were stained with LIVE/DEAD Zombie NIR (Biolegend). For simultaneous detection of the intracellular molecule, after fixed, cells were permeabilized with Foxp3 transcription factor staining buffer set according to the manufacturer’s protocol (eBioscience). All flow antibodies were obtained from BioLegend.

[4] = Body weight in orthotopic glioblastoma mice; format: in vivo, C57BL/6J mice; conditions: repeated treatment; AT-0174 […] mg/kg PO; TMZ 8 mg/kg IP; compared to vehicle
Text: Starting from day 6 after tumour cell inoculation, all mice were monitored in vivo until Day 55 for tumour growth (assessed by bioluminescence and measured on days 6, 14, 21, 28, 35, 42, and 49), body weight (monitored 3 times per week until day 18, and then daily from day 19–55), and survival.

## Cn1cc(C[C@H](N)C(=O)O)c2ccccc21 [1-MT, 1-methyltryptophan]
[1]; TMZ in combination with 1-MT, compared to TMZ alone
  Survival duration: slight increase in the survival duration
[1]; orthotopic GL261 model, given alone
  Efficacy when given alone: ineffective
U87 cell xenograft
  Efficacy when given alone: ineffective

## Cc1ccc(NC(=O)Nc2cc(-c3ccccc3-c3nn[nH]n3)ccc2N(CC(C)C)CC(C)C)cc1 [PCC0208009]
[2]
  Subcutaneous tumour growth: significantly synergised with TMZ
C6 orthotopic glioma
  Survival: improved survival

## Cn1nnc2c(C(N)=O)ncn2c1=O [TMZ, Temozolomide]
[3]; vs control
  Cytotoxic CD8+ T cells in tumour: non-significant increase
[3]; vs vehicle control
  Tregs (CD4+CD25+FoxP3+ cells) in tumour: higher
[4]
  Effect on body weight: mild (though non-significant) drop in body weight
